Data from ChEMBL document CHEMBL1201862, “PubChem BioAssay data set” (2004).
The source made the active and inactive calls.

Legend:
[1] = target: Voltage-dependent T-type calcium channel subunit alpha-1H (Homo sapiens, UniProt O95180); type: functional;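 further: channel activity triggered by adding a high calcium stimulation buffer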
[2] = NIH-3T3 fibroblast cytotoxicity, dose response, cytotoxicity control, cell-based, fluorescence, Alamar Blue, secondary assay (AID 2327); type: functional;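 further: NIH-3T3 mouse fibroblasts cultured with fluconazole at 8 µg/mL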
[3] = target: Eukaryotic translation initiation factor 4E (Mus musculus, UniProt P63073); test: blockers of eIF4G binding by eIF4E – biochemical, TR-FRET, dose response (AID 855); type: functional;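 further: potency for disrupting eIF4E binding to eIF4GI seen as loss of FRET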
[4] = target: FAD-linked sulfhydryl oxidase ALR (Homo sapiens, UniProt P55789); test: ALR-catalysed DTT oxidation blockers – biochemical, H2O2 detection, luminescence, cherry-pick, dose response (AID 493248)
[5] = target: T1, Heat shock factor protein 1 (Mus musculus, UniProt P38532); test: decrease of HSF1-responsive luciferase luminescence – cell-based, NIH3T3, dose retest, confirmation (AID 2382); type: functional;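 further: NIH3T3 fibroblasts with HSF1-driven luciferase reporter stressed by proteasome inhibitor MG132; luminescence from HSF1-driven luciferase expression after 8 hours of MG132 stress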
T1 sequence (P38532 whole entry): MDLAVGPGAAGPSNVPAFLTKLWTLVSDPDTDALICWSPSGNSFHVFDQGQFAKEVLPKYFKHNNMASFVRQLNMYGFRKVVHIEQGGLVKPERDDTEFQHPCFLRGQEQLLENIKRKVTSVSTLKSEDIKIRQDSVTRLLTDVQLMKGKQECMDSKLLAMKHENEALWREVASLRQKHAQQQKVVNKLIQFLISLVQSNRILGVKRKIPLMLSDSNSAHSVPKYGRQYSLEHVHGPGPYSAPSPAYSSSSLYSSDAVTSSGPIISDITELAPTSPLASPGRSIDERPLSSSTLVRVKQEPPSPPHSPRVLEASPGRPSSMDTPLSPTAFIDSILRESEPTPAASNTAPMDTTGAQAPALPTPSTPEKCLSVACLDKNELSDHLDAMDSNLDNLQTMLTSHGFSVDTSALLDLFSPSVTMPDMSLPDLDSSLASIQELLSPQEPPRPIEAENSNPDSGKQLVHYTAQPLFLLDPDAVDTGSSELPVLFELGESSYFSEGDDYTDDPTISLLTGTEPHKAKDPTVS

Cytochrome P450 2C9 [6] = target: T2, Cytochrome P450 2C9 (Homo sapiens, UniProt P11712)
[7] = target: T3, High affinity choline transporter 1 (Homo sapiens, UniProt Q9GZV3); test: human choline transporter blockers, potency – cell-based, 5-point CRC, membrane potential dye, dose response (AID 504840); type: functional
T3 sequence (Q9GZV3 whole entry): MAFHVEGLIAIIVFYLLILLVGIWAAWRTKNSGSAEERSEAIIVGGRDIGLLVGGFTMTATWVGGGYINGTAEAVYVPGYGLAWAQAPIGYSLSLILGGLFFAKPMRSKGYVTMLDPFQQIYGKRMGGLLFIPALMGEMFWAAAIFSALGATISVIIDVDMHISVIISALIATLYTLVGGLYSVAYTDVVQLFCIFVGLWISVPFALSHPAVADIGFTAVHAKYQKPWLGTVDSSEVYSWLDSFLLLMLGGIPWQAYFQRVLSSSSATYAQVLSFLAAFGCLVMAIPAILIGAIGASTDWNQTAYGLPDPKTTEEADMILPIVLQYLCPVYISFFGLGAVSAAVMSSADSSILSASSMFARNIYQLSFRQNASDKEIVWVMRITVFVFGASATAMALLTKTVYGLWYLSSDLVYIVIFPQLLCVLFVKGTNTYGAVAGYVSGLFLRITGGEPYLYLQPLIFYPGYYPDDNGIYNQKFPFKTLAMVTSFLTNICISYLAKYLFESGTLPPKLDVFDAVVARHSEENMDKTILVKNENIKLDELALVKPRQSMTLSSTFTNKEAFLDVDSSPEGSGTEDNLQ

[8] = target: T4, Calpain-2 catalytic subunit (Sus scrofa, UniProt P43367); test: m-calpain protease blockers, concentration series – biochemical, fluorogenic peptide substrate, dose response (AID 1420); type: functional
T4 sequence (P43367 whole entry): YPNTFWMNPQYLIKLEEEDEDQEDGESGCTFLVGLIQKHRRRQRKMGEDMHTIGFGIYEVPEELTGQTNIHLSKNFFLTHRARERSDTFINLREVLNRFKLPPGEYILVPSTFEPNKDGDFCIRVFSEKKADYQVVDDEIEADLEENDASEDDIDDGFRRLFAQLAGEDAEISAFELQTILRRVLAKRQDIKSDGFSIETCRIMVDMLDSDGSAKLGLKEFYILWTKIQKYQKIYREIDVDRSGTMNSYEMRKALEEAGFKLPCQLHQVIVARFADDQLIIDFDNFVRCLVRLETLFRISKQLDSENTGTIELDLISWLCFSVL

Cytochrome P450 2C9 [9] = target: T2, Cytochrome P450 2C9; remark: listed apart in the source
Cytochrome P450 3A4 = Cytochrome P450 3A4 (Homo sapiens, UniProt P08684);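 further: CYP3A4 tested as one member of a cytochrome P450 panel screen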
[10] = system: Streptococcus sp. 'group A'; test: Streptococcus pyogenes SK(-)GAS viability under kanamycin – luminescence, BacTiterGlo, confirmation, counter-screen for streptokinase expression inhibitor project, dose response (AID 1900); type: functional, organism-based
Streptococcus = test: GAS UMAA2166 growth inhibition – luminescence, BacTiterGlo, counter-screen for streptokinase expression inhibitor project, dose response (AID 1915); type: functional, organism-based;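 further: potency for reduction of bacterial viability or growth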
Streptokinase A = target: T5, Streptokinase A (Streptococcus pyogenes serotype M1, UniProt P10520); test: viability-normalized secreted streptokinase activity reduction – plasminogen activation absorbance, OD405, dose response (AID 1914); type: functional, Streptococcus pyogenes M1 GAS;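 further: secreted streptokinase activity via plasminogen activation per viability signal from cell pellet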
T5 sequence (P10520 whole entry): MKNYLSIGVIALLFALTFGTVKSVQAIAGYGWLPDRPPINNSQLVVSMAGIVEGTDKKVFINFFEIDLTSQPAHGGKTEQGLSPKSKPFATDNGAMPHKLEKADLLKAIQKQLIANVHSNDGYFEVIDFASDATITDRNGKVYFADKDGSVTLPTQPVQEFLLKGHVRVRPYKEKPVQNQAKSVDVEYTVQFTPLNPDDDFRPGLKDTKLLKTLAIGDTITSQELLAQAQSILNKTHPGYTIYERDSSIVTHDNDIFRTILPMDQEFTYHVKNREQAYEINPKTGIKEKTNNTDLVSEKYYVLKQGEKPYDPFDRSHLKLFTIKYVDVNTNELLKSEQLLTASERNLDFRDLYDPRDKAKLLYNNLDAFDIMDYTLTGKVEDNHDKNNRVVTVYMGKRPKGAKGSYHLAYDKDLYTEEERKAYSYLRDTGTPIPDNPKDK

[11] = target: Induced myeloid leukemia cell differentiation protein Mcl-1 (Homo sapiens, UniProt Q07820); type: functional
[12] = NIH3T3 cell viability loss – ATP luminescence, mouse fibroblasts, counter-screen, dose response (AID 2010); type: functional, cell-based;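 further: cells exposed to compound for about 90 hours before reading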
[13] = Trypanosoma cruzi growth suppression in host cells – NIH3T3 host cells, beta-gal luminescence, confirmation (AID 2044); type: functional, cell-based;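 further: intracellular parasites grown in NIH/3T3 mouse fibroblasts as host cells; luminescent beta-galactosidase reporter signal from transgenic T. cruzi replicating inside host cells; inhibitors lower the luminescence signal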

Chain of FAD-linked sulfhydryl oxidase ALR (P55789 whole entry): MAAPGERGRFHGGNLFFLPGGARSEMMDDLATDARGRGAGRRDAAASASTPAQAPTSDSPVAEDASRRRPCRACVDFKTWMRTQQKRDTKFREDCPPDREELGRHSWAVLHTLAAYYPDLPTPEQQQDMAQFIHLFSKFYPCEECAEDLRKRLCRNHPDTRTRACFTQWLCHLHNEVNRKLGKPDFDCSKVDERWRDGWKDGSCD
Chain of Induced myeloid leukemia cell differentiation protein Mcl-1 (Q07820 whole entry): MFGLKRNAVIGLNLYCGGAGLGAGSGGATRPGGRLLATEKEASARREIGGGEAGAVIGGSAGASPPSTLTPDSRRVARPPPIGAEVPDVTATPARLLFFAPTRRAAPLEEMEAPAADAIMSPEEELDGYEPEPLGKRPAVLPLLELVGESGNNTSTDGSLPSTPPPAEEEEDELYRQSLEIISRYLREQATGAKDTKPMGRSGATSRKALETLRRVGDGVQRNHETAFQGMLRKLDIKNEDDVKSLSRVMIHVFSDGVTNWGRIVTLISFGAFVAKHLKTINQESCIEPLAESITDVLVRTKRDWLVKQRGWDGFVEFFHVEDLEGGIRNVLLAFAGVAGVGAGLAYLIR
Chain of Voltage-dependent T-type calcium channel subunit alpha-1H (O95180 whole entry): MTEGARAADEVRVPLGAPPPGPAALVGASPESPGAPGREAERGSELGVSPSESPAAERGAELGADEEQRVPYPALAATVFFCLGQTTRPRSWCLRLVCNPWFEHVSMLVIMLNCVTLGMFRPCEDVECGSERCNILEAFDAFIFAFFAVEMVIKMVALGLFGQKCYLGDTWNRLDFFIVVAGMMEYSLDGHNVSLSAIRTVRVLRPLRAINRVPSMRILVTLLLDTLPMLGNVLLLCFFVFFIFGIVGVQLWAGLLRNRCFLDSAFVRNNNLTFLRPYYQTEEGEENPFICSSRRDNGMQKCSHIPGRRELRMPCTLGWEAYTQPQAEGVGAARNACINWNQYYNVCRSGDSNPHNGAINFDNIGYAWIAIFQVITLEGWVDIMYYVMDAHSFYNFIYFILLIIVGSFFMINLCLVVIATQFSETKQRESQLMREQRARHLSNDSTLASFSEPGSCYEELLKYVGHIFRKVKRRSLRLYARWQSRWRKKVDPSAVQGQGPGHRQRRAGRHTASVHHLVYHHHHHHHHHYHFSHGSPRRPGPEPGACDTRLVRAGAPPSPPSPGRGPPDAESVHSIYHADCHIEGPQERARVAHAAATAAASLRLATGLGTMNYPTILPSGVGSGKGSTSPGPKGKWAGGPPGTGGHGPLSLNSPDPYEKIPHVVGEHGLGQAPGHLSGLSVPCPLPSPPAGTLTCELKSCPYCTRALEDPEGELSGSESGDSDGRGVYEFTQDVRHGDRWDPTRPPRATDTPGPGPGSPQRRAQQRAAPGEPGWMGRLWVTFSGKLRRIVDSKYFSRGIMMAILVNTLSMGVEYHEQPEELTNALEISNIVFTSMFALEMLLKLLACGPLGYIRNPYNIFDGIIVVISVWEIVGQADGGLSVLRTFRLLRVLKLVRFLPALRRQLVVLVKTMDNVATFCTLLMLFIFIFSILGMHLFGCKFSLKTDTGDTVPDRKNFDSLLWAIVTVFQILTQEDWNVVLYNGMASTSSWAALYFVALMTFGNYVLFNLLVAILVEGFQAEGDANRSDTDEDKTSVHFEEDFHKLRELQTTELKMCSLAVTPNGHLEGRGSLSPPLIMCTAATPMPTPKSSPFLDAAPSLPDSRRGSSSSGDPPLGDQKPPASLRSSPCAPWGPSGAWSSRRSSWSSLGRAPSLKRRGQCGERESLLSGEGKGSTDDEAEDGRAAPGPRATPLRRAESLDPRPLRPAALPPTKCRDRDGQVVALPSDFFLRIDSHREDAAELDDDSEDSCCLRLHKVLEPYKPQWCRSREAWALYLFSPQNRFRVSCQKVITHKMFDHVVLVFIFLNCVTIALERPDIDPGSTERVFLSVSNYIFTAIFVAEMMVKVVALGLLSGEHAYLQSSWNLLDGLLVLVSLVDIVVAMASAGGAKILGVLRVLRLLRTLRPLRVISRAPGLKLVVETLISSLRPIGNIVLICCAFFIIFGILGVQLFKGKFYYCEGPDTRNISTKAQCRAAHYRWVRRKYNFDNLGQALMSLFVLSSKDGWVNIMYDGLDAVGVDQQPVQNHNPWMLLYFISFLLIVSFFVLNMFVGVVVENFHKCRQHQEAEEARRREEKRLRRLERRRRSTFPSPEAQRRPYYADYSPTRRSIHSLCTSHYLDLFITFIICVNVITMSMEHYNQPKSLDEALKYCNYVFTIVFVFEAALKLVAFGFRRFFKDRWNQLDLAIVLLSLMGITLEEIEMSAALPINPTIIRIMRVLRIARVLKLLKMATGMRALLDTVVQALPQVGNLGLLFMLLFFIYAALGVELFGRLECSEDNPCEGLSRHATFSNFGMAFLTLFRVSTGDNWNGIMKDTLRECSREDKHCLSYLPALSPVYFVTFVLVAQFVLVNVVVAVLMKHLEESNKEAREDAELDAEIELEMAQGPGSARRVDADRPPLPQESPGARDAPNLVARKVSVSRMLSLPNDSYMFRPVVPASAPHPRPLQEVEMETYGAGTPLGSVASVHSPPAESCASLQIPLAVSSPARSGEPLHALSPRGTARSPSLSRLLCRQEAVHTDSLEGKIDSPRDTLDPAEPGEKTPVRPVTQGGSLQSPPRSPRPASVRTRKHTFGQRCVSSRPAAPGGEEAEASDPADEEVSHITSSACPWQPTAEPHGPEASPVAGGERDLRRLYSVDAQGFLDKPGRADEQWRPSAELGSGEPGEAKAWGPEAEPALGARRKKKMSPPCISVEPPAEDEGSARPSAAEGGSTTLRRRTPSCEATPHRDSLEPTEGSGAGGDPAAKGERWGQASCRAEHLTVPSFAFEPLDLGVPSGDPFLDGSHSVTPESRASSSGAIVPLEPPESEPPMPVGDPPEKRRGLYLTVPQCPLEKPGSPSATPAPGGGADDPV
Chain of Eukaryotic translation initiation factor 4E (P63073 whole entry): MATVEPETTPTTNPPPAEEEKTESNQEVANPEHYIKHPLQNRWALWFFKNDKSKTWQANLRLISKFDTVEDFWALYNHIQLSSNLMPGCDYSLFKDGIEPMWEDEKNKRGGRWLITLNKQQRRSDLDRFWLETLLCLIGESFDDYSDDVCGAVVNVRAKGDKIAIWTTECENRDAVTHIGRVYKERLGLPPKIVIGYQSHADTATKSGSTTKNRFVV
T2 sequence (P11712 whole entry): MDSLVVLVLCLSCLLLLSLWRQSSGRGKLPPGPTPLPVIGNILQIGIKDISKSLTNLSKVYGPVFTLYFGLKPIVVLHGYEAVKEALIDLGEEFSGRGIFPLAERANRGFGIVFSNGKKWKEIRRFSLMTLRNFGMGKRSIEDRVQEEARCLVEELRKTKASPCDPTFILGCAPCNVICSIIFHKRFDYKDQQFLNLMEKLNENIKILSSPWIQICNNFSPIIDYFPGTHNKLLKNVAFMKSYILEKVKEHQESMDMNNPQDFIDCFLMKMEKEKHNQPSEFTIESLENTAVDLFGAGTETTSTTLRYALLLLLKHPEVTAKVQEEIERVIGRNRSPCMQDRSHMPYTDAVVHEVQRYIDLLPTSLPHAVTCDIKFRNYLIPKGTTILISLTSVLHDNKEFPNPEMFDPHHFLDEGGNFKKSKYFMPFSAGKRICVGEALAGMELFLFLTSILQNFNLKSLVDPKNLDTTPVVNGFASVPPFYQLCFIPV
Chain of Cytochrome P450 3A4 (P08684 whole entry): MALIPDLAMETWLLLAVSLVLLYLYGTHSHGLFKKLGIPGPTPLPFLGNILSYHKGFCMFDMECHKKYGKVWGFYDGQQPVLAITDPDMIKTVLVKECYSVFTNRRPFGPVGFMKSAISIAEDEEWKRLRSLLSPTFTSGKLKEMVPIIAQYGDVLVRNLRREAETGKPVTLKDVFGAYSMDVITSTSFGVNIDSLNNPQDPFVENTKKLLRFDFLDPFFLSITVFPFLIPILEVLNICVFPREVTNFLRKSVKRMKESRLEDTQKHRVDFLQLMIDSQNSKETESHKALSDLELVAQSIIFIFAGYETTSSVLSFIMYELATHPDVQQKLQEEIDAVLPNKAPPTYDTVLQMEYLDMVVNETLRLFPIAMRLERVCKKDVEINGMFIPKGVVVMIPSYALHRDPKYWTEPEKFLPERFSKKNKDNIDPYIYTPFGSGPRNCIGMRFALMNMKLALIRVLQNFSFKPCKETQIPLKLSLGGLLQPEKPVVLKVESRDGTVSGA

## CC1CCN(C(=O)C2CCN(CCCc3ccccc3)CC2)CC1
[1]
  EC50: 7.69 µM (active)

## Cc1ccc(C(=O)NCc2ccco2)cc1S(=O)(=O)Nc1cccc(Cl)c1
[1]
  EC50: 5.11 µM (active)
[2]
  EC50: > 150 µM (inactive)

## O=C(CN1C(=O)S/C(=C\c2ccc(Cl)cc2)C1=O)NNC(=O)c1ccccc1O
[3]
  IC50: > 64 µM (inactive)

## Nc1nc(-c2ccc3ccccc3c2)cs1
[4]
  AC50: 0.188 µM (active)

## CC(C)C(NC(=O)C12CC3CC(CC(C3)C1)C2)C(=O)NC1=NCCS1 (configuration not stated)
[5]
  EC50: > 195 µM (not active)
[3]
  IC50: > 64 µM (inactive)
Cytochrome P450 2C9 [6]
  AC50: 25.1 µM (inconclusive)

## COc1ccccc1CCC(=O)OCC(=O)c1c(N)n(CC(C)C)c(=O)n(C)c1=O
[7]
  IC50: 14.8 µM (active)

## CCCC(=O)NCc1ccccc1Cl
[8]
  IC50: 36.3 µM (not active)

## COc1ccc([N+](=O)[O-])cc1NC(=O)CC(C)c1ccccc1 (configuration not stated)
Cytochrome P450 2C9 [9]
  AC50: inconclusive

## Oc1ccc(-c2nnc(S)n2-c2ccc(F)c(Cl)c2)nn1
[4]
  AC50: 7.36 µM (active)

## CCOc1ccc(NC(=O)CN(c2cccc(C(F)(F)F)c2)S(C)(=O)=O)cc1
[1]
  EC50: 9.24 µM (active)

## Cc1ccc(C2=NNC(=O)C(c3c[nH]c4ccccc34)C2)cc1 (configuration not stated)
[8]
  IC50: 46.4 µM (not active)

## COc1ccc(OC)c(Nc2ncnc3sc(-c4ccccc4)cc23)c1
[3]
  IC50: > 64 µM (inactive)

## FC(F)(F)c1cnc(/C=C/Nc2ccccc2Cl)c(Cl)c1
Cytochrome P450 3A4
  AC50: 31.6 µM (inconclusive)
Cytochrome P450 2C9 [9]
  AC50: inconclusive

## CC1CCCCC1NC(=O)CCn1ccc2cc(S(=O)(=O)N3CCCC3)ccc21 (configuration not stated)
[7]
  IC50: 17 µM (active)
[10]
  EC50: > 150 µM (not active)
Streptococcus
  EC50: > 150 µM (not active)
Streptokinase A
  EC50: > 150 µM (not active)

## O=C(Nc1ccc2c(c1)OCO2)N1CCN(c2ncc(C(F)(F)F)cc2Cl)CC1
[1]
  EC50: 1.99 µM (active)

## Cc1ccc(N(CC(=O)NC2CCCC2)C(=O)c2ccc(C)s2)cc1
[8]
  IC50: > 50 µM (not active)

## CC(C)CC(c1nnnn1C1CCCC1)N1CCC(C(N)=O)CC1 (configuration not stated)
[8]
  IC50: > 50 µM (not active)

## CN(CC(=O)N1CCN(c2ccccc2)CC1)S(=O)(=O)c1c[nH]cn1
[4]
  AC50: 4.58 µM (active)

## Cc1cc(C)cc(NC(=O)CSc2nnc(Cc3cccn3C)n2-c2ccc(F)cc2)c1
[1]
  EC50: 2.01 µM (active)

## Cn1c(N)c(C(=O)COC(=O)C2CCCCC2)c(=O)n(C)c1=O
[8]
  IC50: 6.73 µM (active)

## O=C(NNS(=O)(=O)c1ccc(C(=O)NC2CCCC2)cc1)c1ccncc1
[4]
  AC50: 1.67 µM (active)

## O=C(c1ccccc1)N1CC(COc2ccccc2)OC(c2ccco2)O1 (configuration not stated)
[1]
  EC50: 12.4 µM (active)

## COc1ccc2nc(NC(=O)Nc3cccc4ccccc34)sc2c1
[11]
  IC50: 5.86 µM (not active)

## COc1ccccc1CNc1cc(-c2ccccc2OC)ncn1
Cytochrome P450 2C9 [9]
  AC50: inconclusive

## Cc1cc(C(=O)OCC(=O)Nc2sc3c(c2C#N)CCC(C)C3)c2ccccc2n1 (configuration not stated)
[11]
  IC50: 5.16 µM (active)

## O=C(C1CCN(S(=O)(=O)c2cccc3nsnc23)CC1)N1CCN(c2ccccc2F)CC1
Cytochrome P450 2C9 [9]
  AC50: inconclusive

## COc1ccccc1NC(=O)C1CCCN(c2ncnc3c2nc2n3CCCCC2)C1 (configuration not stated)
[7]
  IC50: 15.1 µM (active)

## c1ccc(CCc2nn3c(Cc4ccccc4)nnc3s2)cc1
[7]
  IC50: 27.5 µM (active)

## CCc1ccc(Nc2c([N+](=O)[O-])nn(-c3ccc4c(c3)OCCO4)[n+]2[O-])cc1
[7]
  IC50: 12.6 µM (active)
[12]
  EC50: > 60 µM (not active)
[13]
  EC50: 0.447 µM (active)

## O=C(Cn1c(=O)n(-c2ccccc2)c(=O)c2sccc21)N1CCCC1
[11]
  IC50: 11.6 µM (not active)

## CC(C)CC(=O)Nc1nnc(SCC(=O)Nc2ccc(F)cc2)s1
[8]
  IC50: > 50 µM (not active)

## CCNc1nc(NC(C)C)nc(Oc2ccc(=O)n(C)n2)n1
[3]
  IC50: 50 µM (inactive)

## N#CC1=C(N)Oc2cc(N)ccc2C1C1CC=CCC1 (configuration not stated)
[4]
  AC50: 5.72 µM (active)

## Nc1ccccc1-c1nnc(SCc2ccccc2F)nc1O
[3]
  IC50: > 64 µM (inactive)

## CCC(=O)Nc1ccc(C(=O)N2CCN(C(=O)c3ccco3)CC2)cc1
[8]
  IC50: 25.3 µM (not active)

## CC(=O)OCc1c(C(F)(F)F)nn(C)c1Oc1cccc(C(F)(F)F)c1
[1]
  EC50: 8.45 µM (active)

## CCCn1c2ccccc2c2cnn(CC(=O)NCCCN3CCCCC3)c(=O)c21
[7]
  IC50: 12.6 µM (active)

## O=C(O)c1cc(N/N=C/c2ccc(N3CCOCC3)s2)ccc1Cl
[11]
  IC50: 3.84 µM (active)
